Data as given in ChEMBL document CHEMBL5365465, “Oxetanes in Drug Discovery Campaigns” (J Med Chem, 2023).

Assays:
[1] = target: Platelet-derived growth factor receptor alpha (Homo sapiens, UniProt P16234, D842V); experiment: Inhibition of PDGFRalpha D842V mutant (unknown origin)
[2] = target: Mast/stem cell growth factor receptor Kit (Homo sapiens, UniProt P10721, D816V); experiment: Inhibition of KIT D816V mutant (unknown origin)
[3] = target: T1, Leucine-rich repeat serine/threonine-protein kinase 2 (Homo sapiens, UniProt Q5S007); experiment: Inhibition of LRRK2 (unknown origin)
T1 sequence (Q5S007 whole entry): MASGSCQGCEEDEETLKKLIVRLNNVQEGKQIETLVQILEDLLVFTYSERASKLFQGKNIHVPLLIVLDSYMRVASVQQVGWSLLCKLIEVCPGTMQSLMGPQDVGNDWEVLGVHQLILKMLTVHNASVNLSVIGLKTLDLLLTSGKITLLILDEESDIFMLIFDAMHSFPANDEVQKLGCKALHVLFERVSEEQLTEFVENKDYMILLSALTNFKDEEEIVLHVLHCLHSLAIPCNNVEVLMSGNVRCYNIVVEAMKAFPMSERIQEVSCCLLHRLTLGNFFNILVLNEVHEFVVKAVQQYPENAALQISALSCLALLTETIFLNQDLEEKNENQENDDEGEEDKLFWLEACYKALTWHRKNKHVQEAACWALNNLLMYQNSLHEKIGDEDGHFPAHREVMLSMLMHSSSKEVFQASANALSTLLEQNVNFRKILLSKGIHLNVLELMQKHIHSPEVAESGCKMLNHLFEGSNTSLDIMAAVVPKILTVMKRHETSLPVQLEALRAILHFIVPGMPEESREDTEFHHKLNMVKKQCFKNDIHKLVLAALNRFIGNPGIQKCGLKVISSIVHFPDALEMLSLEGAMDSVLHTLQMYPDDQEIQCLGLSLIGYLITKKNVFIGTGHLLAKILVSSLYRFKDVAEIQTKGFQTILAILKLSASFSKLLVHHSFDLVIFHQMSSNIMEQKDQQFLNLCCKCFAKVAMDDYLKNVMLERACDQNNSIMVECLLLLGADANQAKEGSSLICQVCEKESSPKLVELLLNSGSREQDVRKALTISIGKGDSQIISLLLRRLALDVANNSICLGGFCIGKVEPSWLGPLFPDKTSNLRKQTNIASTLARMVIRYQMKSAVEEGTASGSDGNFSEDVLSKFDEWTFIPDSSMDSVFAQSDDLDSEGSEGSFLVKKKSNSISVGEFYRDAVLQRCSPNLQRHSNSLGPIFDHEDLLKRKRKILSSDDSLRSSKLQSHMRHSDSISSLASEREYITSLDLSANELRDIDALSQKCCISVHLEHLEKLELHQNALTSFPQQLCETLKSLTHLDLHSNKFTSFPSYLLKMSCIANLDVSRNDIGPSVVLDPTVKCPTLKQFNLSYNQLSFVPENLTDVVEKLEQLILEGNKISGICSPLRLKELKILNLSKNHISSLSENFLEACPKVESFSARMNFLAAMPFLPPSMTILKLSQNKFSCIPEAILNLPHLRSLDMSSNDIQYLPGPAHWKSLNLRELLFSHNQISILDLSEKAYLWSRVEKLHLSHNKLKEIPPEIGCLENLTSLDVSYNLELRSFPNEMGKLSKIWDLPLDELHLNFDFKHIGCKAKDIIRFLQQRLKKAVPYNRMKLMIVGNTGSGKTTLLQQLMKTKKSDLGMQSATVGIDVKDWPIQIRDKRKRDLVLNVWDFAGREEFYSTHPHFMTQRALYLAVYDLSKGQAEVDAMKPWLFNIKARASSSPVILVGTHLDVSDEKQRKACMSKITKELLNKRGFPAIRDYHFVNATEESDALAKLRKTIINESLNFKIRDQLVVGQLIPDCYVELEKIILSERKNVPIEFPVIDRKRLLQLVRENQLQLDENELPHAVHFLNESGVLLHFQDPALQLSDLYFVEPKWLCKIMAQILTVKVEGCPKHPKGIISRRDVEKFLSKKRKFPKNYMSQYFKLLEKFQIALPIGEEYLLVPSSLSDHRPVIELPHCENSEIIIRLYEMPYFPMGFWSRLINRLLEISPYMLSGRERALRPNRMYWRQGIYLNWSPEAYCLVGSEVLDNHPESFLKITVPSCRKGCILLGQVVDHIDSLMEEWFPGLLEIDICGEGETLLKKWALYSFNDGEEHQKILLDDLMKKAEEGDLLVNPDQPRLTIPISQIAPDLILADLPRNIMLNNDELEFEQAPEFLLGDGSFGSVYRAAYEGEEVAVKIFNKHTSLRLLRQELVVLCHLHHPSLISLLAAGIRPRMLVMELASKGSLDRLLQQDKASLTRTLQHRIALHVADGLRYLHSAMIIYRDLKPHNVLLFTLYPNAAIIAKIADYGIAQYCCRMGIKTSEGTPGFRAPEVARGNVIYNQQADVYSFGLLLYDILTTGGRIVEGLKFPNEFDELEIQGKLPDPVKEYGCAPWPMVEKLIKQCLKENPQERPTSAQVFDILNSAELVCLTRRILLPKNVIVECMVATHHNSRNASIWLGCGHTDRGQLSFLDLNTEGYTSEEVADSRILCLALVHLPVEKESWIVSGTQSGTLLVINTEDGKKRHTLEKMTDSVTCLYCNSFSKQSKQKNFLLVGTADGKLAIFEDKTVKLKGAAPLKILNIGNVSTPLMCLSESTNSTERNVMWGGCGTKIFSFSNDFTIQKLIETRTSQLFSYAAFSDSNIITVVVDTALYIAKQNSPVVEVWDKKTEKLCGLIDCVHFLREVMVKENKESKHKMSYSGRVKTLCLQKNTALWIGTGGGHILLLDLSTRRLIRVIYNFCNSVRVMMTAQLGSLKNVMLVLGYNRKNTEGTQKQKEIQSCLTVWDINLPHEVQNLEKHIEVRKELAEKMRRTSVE

Protease = Protease (Human immunodeficiency virus 1, UniProt Q9YQ12); experiment: Inhibition of HIV protease
Chain of Protease (Q9YQ12 whole entry): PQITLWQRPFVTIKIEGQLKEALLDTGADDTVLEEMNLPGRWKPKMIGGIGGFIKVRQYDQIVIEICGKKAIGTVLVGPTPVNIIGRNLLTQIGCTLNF

[4] = target: Histone-lysine N-methyltransferase EZH2 (Homo sapiens, UniProt Q15910); experiment: Inhibition of EZH2 (unknown origin)
Chain of Histone-lysine N-methyltransferase EZH2 (Q15910 whole entry): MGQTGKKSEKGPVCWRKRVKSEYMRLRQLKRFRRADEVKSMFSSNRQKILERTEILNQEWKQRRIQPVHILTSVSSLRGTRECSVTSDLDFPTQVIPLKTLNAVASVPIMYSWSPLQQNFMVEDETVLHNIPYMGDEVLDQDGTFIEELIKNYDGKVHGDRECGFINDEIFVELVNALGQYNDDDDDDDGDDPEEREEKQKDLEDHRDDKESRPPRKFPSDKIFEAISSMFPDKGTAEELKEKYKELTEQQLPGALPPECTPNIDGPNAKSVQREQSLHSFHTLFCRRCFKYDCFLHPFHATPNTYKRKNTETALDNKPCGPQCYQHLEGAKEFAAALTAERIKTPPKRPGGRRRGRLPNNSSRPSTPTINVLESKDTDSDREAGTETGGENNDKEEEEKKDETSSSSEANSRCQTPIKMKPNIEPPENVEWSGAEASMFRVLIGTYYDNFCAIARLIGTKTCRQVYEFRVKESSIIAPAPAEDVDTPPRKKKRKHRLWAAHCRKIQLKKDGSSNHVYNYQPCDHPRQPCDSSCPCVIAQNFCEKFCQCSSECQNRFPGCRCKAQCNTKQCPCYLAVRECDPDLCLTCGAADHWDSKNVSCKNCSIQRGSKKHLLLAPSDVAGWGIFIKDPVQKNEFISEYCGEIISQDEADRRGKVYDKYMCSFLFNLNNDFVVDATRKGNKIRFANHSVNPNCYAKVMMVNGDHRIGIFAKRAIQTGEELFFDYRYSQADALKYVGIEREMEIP

[5] = Aqueous solubility of compound at pH 2; type: physicochemical
[6] = Metabolic stability in human liver microsomes assessed as intrinsic clearance; type: ADME, Microsome
[7] = target: T1, Leucine-rich repeat serine/threonine-protein kinase 2; experiment: Inhibition of LRRK2 in human PBMCs assessed as reduction in […] phosphorylation

Chain of Platelet-derived growth factor receptor alpha (P16234 24-1089 D842V limits assumed): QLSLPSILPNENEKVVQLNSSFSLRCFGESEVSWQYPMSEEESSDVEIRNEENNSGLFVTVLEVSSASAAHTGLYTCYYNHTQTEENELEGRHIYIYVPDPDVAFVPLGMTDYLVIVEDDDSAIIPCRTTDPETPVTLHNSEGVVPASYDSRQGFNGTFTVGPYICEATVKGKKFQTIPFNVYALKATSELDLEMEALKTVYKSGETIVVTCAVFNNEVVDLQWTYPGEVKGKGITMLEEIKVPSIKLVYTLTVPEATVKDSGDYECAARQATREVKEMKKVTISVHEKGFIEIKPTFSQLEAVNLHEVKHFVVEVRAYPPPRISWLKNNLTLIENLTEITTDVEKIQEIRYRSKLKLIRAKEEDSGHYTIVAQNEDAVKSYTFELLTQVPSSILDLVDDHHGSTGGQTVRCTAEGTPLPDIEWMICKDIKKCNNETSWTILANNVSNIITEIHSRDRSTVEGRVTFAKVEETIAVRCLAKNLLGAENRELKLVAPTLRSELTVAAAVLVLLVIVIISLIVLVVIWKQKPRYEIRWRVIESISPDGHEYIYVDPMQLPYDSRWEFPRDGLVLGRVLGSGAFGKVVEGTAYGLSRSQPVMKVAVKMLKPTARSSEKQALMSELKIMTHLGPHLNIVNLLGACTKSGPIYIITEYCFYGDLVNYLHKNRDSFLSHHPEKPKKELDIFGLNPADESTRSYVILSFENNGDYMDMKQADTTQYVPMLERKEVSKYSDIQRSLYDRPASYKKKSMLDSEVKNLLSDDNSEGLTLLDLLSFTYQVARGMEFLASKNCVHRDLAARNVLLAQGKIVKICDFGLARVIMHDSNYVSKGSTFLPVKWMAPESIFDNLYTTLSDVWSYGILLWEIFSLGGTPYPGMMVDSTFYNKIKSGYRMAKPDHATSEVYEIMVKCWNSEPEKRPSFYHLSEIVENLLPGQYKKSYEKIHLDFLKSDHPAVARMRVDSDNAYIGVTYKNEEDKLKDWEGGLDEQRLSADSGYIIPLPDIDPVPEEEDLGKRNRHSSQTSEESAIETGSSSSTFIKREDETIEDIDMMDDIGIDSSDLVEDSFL

In the case of `C[C@](N)(c1ccc(F)cc1)c1cnc(N2CCN(c3ncnn4cc(-c5cnn(CC6COC6)c5)cc34)CC2)nc1`, the IC50 [1] is reported as less than 4.5 nM and the IC50 [2] is reported as less than 4.5 nM.
`CC(C)(C)Cn1cc(Nc2ncc3c(Cl)c(N4CCN(C5(C)COC5)CC4)ccc3n2)cn1` showed an IC50 [3] of 9.7 nM.
`COC(=O)N[C@H](C(=O)N[C@@H](Cc1ccc(C#Cc2ccc(N3CC4CCC(C3)N4C3COC3)nc2)cc1)[C@@H](O)CN(Cc1c(F)cc(-c2ccn(C(F)F)n2)cc1F)NC(=O)[C@@H](NC(=O)OC)C(C)(C)C(F)(F)F)C(C)(C)C(F)(F)F` gave an EC50 (Protease) of 4.8 nM.
`Cc1ccc2ccc(N[C@H]3CC[C@H](CNc4ncc(C(F)(F)C(=O)NC5COC5)cn4)CC3)nc2c1Cl` gave an IC50 [4] of less than 10 nM.
For `Nc1cncc(-c2cn3ccnc3c(Nc3ccc(N4CCN(C5COC5)CC4)cc3)n2)n1` [LANRAPLENIB], the solubility [5] was greater than 100 µM and the CLH [6] was less than 1.83 mL/min/kg.
`c1cn2cc(-c3ccc4cn[nH]c4c3)nc(Nc3ccc(N4CCOCC4)cc3)c2n1` [ENTOSPLETINIB] showed a CLH [6] of 5.17 mL/min/kg.
`O=C1NCCCOc2ccc3[nH]nc(c3c2)-c2cc(cc(N3CCC4(COC4)C3)c2)CO1` showed an IC50 [7] of less than 10 nM.
